Experimental data as given in PMC10380083, “Synthesis of Prostate-Specific Membrane Antigen-Targeted Bimodal Conjugates of Cytotoxic Agents and Antiandrogens and Their Comparative Assessment with Monoconjugates” (International Journal of Molecular Sciences, 2023).
Read-outs that look alike come from different tables or passages of the source. *1 amine or outer side, *2 acyl side, *3 side chain or, on linkers, in order; H or OH if unused. Where a SMILES comes first, the peptide text is derived from it. [ ]: non-standard residue; d: D form. The star is where a group is joined. GluureaLys(ε-3-ClBenzyl) = O=C(O)CC[C@H](NC(=O)N[C@@H](CCCCN(Cc1cccc(Cl)c1)*)C(=O)O)C(=O)O; Dolaproine = CO[C@@H]([C@@H]1CCCN1)[C@@H](C)C(=O)O; Dil = CC[C@H](C)[C@H](NC)[C@@H](CC(=O)O)OC; X2 = O=C(CCCc1cn(CCCN[*:1])nn1)[*:2]; PABC = O=C(OCc1ccc(N[*:1])cc1)[*:2]; X1 = C[C@@H](N*)[C@@H](O)c1ccccc1; Cit = NC(=O)NCCC[C@H](N)C(=O)O; Suc = O=C(CCC(=O)[*:2])[*:1]; NMeV = CN[C@H](C(=O)O)C(C)C; Ahx = NCCCCCC(=O)O

Key:
[1] = system: PC-3 prostate adenocarcinoma xenograft; conditions: PC-3 xenograft; for tumor volume V±m: i.v. triple injection, single dose 132.3 nM/kg; for Tumor growth inhibition: i.v. 132.3 nM/kg three times
Protocol: (§1) We carried out in vivo studies of the efficacy of the obtained bimodal conjugates. […] Also, conjugate I (Figure 5) was used as a reference compound. An isotonic (0.9%) sodium chloride solution was used as a negative control. Studies were carried out in xenograft models of 22Rv1 human prostate carcinoma and PC-3 prostate adenocarcinoma in immunodeficient Balb/c nude mice (male).
(§2) Two cell lines were used: human prostate carcinoma 22Rv1 and prostate adenocarcinoma PC-3 (ATCC collection). Cells were cultured in 75 cm^2 vials (Costar, Washington, DC, USA) in RPMI-1640 medium (PanEco, Russia) with the addition of 2 mM L-glutamine (PanEco, Russia) and 10% fetal calf serum (HyClone, Logan, UT, USA) under standard conditions of cultivation (in a humidified atmosphere at 37 °C and 5% CO2). Cells of 6–10 passages were used to inoculate the animals. Cell suspension was prepared with a concentration of 5 × 10^6 cells in 0.05 mL of the 22Rv1 medium and in 0.1 mL of the PC-3 medium. 22Rv1 cells were inoculated into animals in Matrigel (BD Matrigel Basement Membrane Matrix, BD Biosciences, San Jose, CA, USA). Manipulations with Matrigel were performed on a refrigerated plate using precooled materials, tubes and instrumentation. For animal administration, 50 μL of the cell suspension (5 × 10^6 cells) was transferred to a chilled tube containing 50 μL of Matrigel; after mixing, the cellular material (final volume of 100 μL) was injected subcutaneously into the groin area of the animal. To obtain subcutaneous xenograft PC-3, a 5 × 10^6 suspension of tumor cells was inoculated subcutaneously into the inguinal cavity of male mice in a volume of 0.1 mL.
(§3) To study the antitumor efficacy, conjugates were administered intravenously at a dose of 132.3 nM/kg to tumor-bearing mice three times at five-day intervals; administration was started 7−8 days after cell inoculation, and the tumor size was 70−90 mm^3. As a control substance, 0.9% sodium chloride solution was used. Experimental groups included five animals each. […] The mixture was dissolved in DMSO (5% of final solution) and diluted with hemodesum (30% low-molecular-weight polyvinylpyrrolidone (Mw = 8000 ± 200) saline infusion solution). The presence of tumors and their sizes, as well as the body weights of the mice, were recorded every five days during the observation of the animals. The antitumor effect was assessed by comparing the tumor volumes in the experimental and control groups as well as the amount of tumor growth inhibition (TGI, %).
(§4) Tumor volume was calculated using Formula (1):V = d1 × d2 × d3 × 0.52(1) where d1, d2 and d3 are the three mutually perpendicular dimensions of the tumor. […]
(§5) 3.2.1. In vivo evaluation of antitumor efficacy […]
(§6) intravenously at a dose of 132.3 nM/kg to tumor-bearing mice three times at 5-day intervals, the administration was started 7-8 days after cell inoculation to animals, tumor size was 70-90 mm3.
(§7) A 0.9% sodium chloride solution was used as a control substance. The experimental groups […]
(§8) The presence of tumor masses and their size, as well as the body weight of the mice, were recorded every 5 days during observation. In accordance with humane principles, animals were euthanized by placing the mice in a CO2 inhalation chamber (ZOONLAB GmbH, Germany).

[2] = system: 22Rv1 human prostate carcinoma xenograft; conditions: 22Rv1 xenograft; for tumor volume V±m: i.v. triple injection, single dose 132.3 nM/kg; for Tumor growth inhibition: i.v. 132.3 nM/kg three times
Protocol: as §1, §2, §3, §4, §5, §6, §7, §8

[3] = Body weight, general condition and mortality in the antitumor efficacy study; conditions: i.v. 132.3 nM/kg x3
Protocol: Animal body weight data are presented in Table S2 in the electronic supplementary materials.
as §3, with “%). […]” for “%).”
as §5, §6, §7, §8
Conjugate Method of injection Dose Number of animals 22Rv1 PC-3 […]
3.4. In vivo Efficacy Evaluation
Days after tumor implantation / mass± error, g
Conjugate 7 day 12 day 17 day […]
injection) injection) injection)
Human prostate carcinoma 22Rv1
Human prostate adenocarcinoma PC-3
Table S3. Tumor growth dynamics of 22Rv1 and PC-3 in mice with intravenous triple injection of […]
ate Days after tumor implantation / V±m, mm3

[4] = 7 day after tumor implantation (1st injection)
[5] = 12 day after tumor implantation (2nd injection)
[6] = 17 day after tumor implantation (3rd injection)
[7] = 33 day after tumor implantation
[8] = 37 day after tumor implantation
[9] = days after the start of treatment: 16
[10] = days after the start of treatment: 20

Which “tumor volume V±m” value [1, 4] does the source give for `CC[C@H](C)[C@@H]([C@@H](CC(=O)N1CCC[C@H]1[C@H](OC)[C@@H](C)C(=O)N[C@H](C)[C@@H](O)c1ccccc1)OC)N(C)C(=O)[C@@H](NC(=O)[C@H](C(C)C)N(C)C(=O)OCc1ccc(NC(=O)[C@H](CCCNC(N)=O)NC(=O)[C@@H](NC(=O)CCCc2cn(CCCNC(=O)[C@H](Cc3ccc(O)cc3)NC(=O)[C@H](Cc3ccccc3)NC(=O)CCC(=O)NCCCCCC(=O)N(CCCC[C@H](NC(=O)N[C@@H](CCC(=O)O)C(=O)O)C(=O)O)Cc3cccc(Cl)c3)nn2)C(C)C)cc1)C(C)C` [I, reference compound] ({GluureaLys(ε-3-ClBenzyl)-Ahx-Suc}-FY[X2]V[Cit][PABC][NMeV]V[Dil][Dolaproine]-X1) here?
The value was 80.3±4.5 mm3.

What about the “tumor volume V±m” value [1, 5] of the same compound?
The value was 92.6±14.8 mm3.

And the “tumor volume V±m” value [1, 6]?
Its value is 128.9 mm3.

What about the “tumor volume V±m” value [1, 7] of the same compound?
Its value is 1059.1 mm3.

What about the “tumor volume V±m” value [1, 8] of the same compound?
The value was 1855.5 mm3.

What about the Tumor growth inhibition [1, 9] of the same compound?
The Tumor growth inhibition was 37.2%.

And the Tumor growth inhibition [1, 10]?
Its Tumor growth inhibition is 21.1%.

What about the “TGI, did not exceed” value ([1]; i.v. 132.3 nM/kg three times at five-day intervals, male Balb/c nude mice) of the same compound?
Its value is no more than 37.7%.

What about the “tumor volume V±m” value [2, 4] of the same compound?
The value was 78.3±16.3 mm3.

What about the “tumor volume V±m” value [2, 5] of the same compound?
Its value is 85.4±25.5 mm3.

What about the “tumor volume V±m” value [2, 6] of the same compound?
The value was 92.6±34.8 mm3.

And the “tumor volume V±m” value ([2]; 22 day after tumor implantation)?
The value was 147.7 mm3.

What about the “tumor volume V±m” value [2, 7] of the same compound?
Its value is 419.5 mm3.

What about the “tumor volume V±m” value [2, 8] of the same compound?
The value was 824.4 mm3.

And the Tumor growth inhibition ([2]; days after the start of treatment: 1)?
The Tumor growth inhibition was 77.4%.

And the Tumor growth inhibition [2, 9]?
Its Tumor growth inhibition is 80.1%.

And the Tumor growth inhibition [2, 10]?
Its Tumor growth inhibition is 71.0%.

And the “body weight, mass ± error” value ([3]; 22Rv1 xenograft mice, 7 day after tumor implantation (1st injection))?
The value was 23.4 ± 0.8 g.

And the “body weight, mass ± error” value ([3]; 22Rv1 xenograft mice, 12 day after tumor implantation (2nd injection))?
The value was 23.9 ± 1.2 g.

And the “body weight, mass ± error” value ([3]; 22Rv1 xenograft mice, 17 day after tumor implantation (3rd injection))?
Its value is 23.5 ± 1.7 g.

And the “body weight, mass ± error” value ([3]; 22Rv1 xenograft mice, 22 day after tumor implantation)?
The value was 23.4 ± 1.5 g.

What about the “body weight, mass ± error” value ([3]; 22Rv1 xenograft mice, 27 day after tumor implantation) of the same compound?
Its value is 23.2 ± 1.4 g.

What about the “body weight, mass ± error” value ([3]; 22Rv1 xenograft mice, 33 day after tumor implantation) of the same compound?
The value was 23.2 ± 1.6 g.

And the “body weight, mass ± error” value ([3]; 22Rv1 xenograft mice, 37 day after tumor implantation)?
The value was 23.4 ± 1.5 g.

And the “body weight, mass ± error” value ([3]; PC-3 xenograft mice, 7 day after tumor implantation (1st injection))?
Its value is 22.4 ± 2.1 g.

What about the “body weight, mass ± error” value ([3]; PC-3 xenograft mice, 12 day after tumor implantation (2nd injection)) of the same compound?
Its value is 22.8 ± 1.8 g.

And the “body weight, mass ± error” value ([3]; PC-3 xenograft mice, 17 day after tumor implantation (3rd injection))?
The value was 22.4 ± 1.6 g.

And the “body weight, mass ± error” value ([3]; PC-3 xenograft mice, 22 day after tumor implantation)?
The value was 22.8 ± 1.4 g.

And the “body weight, mass ± error” value ([3]; PC-3 xenograft mice, 27 day after tumor implantation)?
Its value is 23.0 ± 1.3 g.

What about the “body weight, mass ± error” value ([3]; PC-3 xenograft mice, 33 day after tumor implantation) of the same compound?
The value was 23.2 ± 1.4 g.

And the “body weight, mass ± error” value ([3]; PC-3 xenograft mice, 37 day after tumor implantation)?
The value was 23.1 ± 1.3 g.
